Results as given in patent US20220349825A1, “METHOD AND DEVICE FOR MEASURING CELL CONTRACTILITY” (THE ROYAL INSTITUTION FOR THE ADVANCEMENT OF …, priority 2021, published 2022).

Tested on: NIH-3T3 fibroblast cells
Assay: time-dependent coverage-based (PaCS) measurement of cellular forces of fibroblasts on square patterns on 12 kPa PDMS, compared with TFM
Assay type: cell-based, mouse
Details: 2 μM Cytochalasin D at end of 18 hours measurement; square patterns ~2400 μm^2; 12 kPa PDMS substrate
Experimental: The ability of the coverage-based technique to resolve time-dependent work was further tested. Fibroblast cellular forces on square patterns (˜2400 μm^2) on PDMS substrates (12 kPa) for 18 hours were measured; to further test the sensitivity of this technique the cellular forces was inhibited by depolymerizing actin using Cytochalasin D (Cyto D) in the last few hours of measurement. Using time-dependent coverage-based technique, cellular forces with time was measured when compared to TFM measurements, even after the Cyto D treatment, as presented in FIGS. 9c and 9d. […] Also the low strain energy values of ˜0.1 pJ indicate minimum resolution of the measurement on 12 kPa PDMS substrate. […]
After 16-18 hours of cell seeding, cells were stained with cell tracker green CMFDA (Thermofisher) to detect cell boundaries, and the plates were transferred to a lab-built heated stage perfused with 5% CO2 and mounted on a confocal microscope (Leica TCS SP8 with a 10×0.4 NA objective). With this setup, cells were imaged with transmission and fluorescence microscopy for extended periods, while maintaining a controlled culture environment
In PaCS, cells are confined on adhesive micropatterns of known area on linearly elastic silicone substrates. […] First, the deformed and undeformed pattern area are measured by thresholding the fluorescent pattern images. […]

## C=C1[C@@H](C)[C@H]2[C@H](Cc3ccccc3)NC(=O)[C@]23[C@H](OC(C)=O)/C=C/[C@@](C)(O)C(=O)[C@@H](C)C/C=C/[C@H]3[C@@H]1O [Cytochalasin D]
  cellular force (contractility) after drug treatment: decreased cellular force
  pattern area after drug treatment: increased pattern area
